Reference: ChEMBL document CHEMBL5518188, “Discovery of 4-amino-1,6-dihydro-7H-pyrrolo[2,3-d]pyridazin-7-one derivatives as potential receptor-interacting serine/threonine-protein kinase 1 (RIPK1) inhibitors” (Eur J Med Chem, 2024)

Tests used:
[1] = molecular target: T1, Receptor-interacting serine/threonine-protein kinase 1 (Homo sapiens, UniProt Q13546); test: Inhibition of RIPK1 (unknown origin) in presence of ATP by kinaseProfiler assay
T1 sequence (Q13546 whole entry): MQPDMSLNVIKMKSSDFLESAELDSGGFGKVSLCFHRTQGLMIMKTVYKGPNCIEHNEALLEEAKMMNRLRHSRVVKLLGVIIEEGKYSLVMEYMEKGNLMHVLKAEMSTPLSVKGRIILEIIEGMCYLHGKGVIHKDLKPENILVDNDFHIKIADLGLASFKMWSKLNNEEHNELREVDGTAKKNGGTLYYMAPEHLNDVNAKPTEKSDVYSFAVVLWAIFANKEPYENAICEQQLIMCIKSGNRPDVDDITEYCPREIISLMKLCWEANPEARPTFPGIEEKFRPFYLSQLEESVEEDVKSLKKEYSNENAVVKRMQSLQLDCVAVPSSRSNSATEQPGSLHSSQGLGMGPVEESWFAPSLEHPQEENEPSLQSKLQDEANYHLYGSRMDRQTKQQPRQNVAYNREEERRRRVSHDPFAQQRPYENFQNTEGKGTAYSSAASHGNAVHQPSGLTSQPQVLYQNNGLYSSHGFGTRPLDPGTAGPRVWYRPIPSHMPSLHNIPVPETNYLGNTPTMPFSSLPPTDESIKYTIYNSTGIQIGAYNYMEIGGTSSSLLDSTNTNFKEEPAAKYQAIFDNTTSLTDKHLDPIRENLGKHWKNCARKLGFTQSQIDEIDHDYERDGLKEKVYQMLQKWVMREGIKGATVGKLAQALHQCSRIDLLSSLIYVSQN

[2] = tested on: HT-29; test: Anti-necroptosis activity against TSZ-induced human HT-29 cells; format: functional, cell-based
[3] = tested on: U-937; test: Anti-necroptosis activity against TSZ-induced human U-937 cells; format: functional, cell-based
[4] = tested on: L929; test: Anti-necroptosis activity against TSZ-induced mouse L929 cells; format: functional, cell-based
[5] = Metabolic stability in cryopreserved human liver microsome assessed as half life; format: ADME; settings: cryopreserved liver microsomes

| Structure (SMILES) | IC50 [1] [nM] | EC50 [2] [nM] | EC50 [3] [nM] | EC50 [4] [nM] | half-life [5] [min] |
| --- | --- | --- | --- | --- | --- |
| CC1(Cn2cc(-c3ccc4c(c3)CCN4C(=O)Cc3cccc(C(F)(F)F)c3)c3c(N)n[nH]c(=O)c32)COC1 | 48.7 | 33 | 22 | 1.58 | 85.6 |
| Nc1n[nH]c(=O)c2c1c(-c1ccc3c(c1)CCN3C(=O)Cc1cccc(OC(F)(F)F)c1)nn2CCC1CC1 | 70.3 | 18.2 | 4.04 | 3.67 |  |
| Nc1n[nH]c(=O)c2c1c(-c1ccc3c(c1)CCN3C(=O)Cc1cccc(OC(F)(F)F)c1)nn2CC1CCCC1 | 95.9 | 15.7 | 12.7 | 3.95 | 49.9 |
| CC1(Cn2nc(-c3ccc4c(c3)CCN4C(=O)Cc3cccc(OC(F)(F)F)c3)c3c(N)n[nH]c(=O)c32)COC1 | 79.8 | 5.57 | 3.9 | 1.85 | 13.2 |
| Nc1n[nH]c(=O)c2c1c(-c1ccc3c(c1)CCN3C(=O)Cc1cccc(OC(F)(F)F)c1)nn2CC1COC1 | 73.7 | 15.1 | 5.09 | 5.89 | 19.9 |
| CCn1nc(-c2ccc3c(c2)CCN3C(=O)CC2CCCCC2)c2c(N)n[nH]c(=O)c21 | > 1000 | 891 | 879 | 64.5 |  |
| Nc1n[nH]c(=O)c2c1c(-c1ccc3c(c1)CCN3C(=O)Cc1cccc(OC(F)(F)F)c1)nn2CCC1CCCCC1 | > 1000 | 246 | 103 | 16.2 |  |
| CCn1cc(-c2ccc3c(c2)CCN3C(=O)Cc2cccc(OC(F)(F)F)c2)c2c(=O)[nH]cnc21 | > 1000 |  |  |  |  |
| CCn1nc(-c2ccc3c(c2)CCN3C(=O)Cc2cccc(F)c2)c2c(N)n[nH]c(=O)c21 | > 1000 | 597 | 722 | 45.6 |  |
| CCn1cc(-c2ccc3c(c2)CCN3C(=O)Cc2cccc(OC(F)(F)F)c2)c2c(N)n[nH]c(=O)c21 | 60.5 | 5.45 | 1.74 | 5.99 | 66.6 |
| Nc1n[nH]c(=O)c2c1c(-c1ccc3c(c1)CCN3C(=O)Cc1cccc(OC(F)(F)F)c1)nn2CCC1CCCC1 | > 1000 | 134 | 60.1 | 7.61 |  |
| NC(=O)c1cccc(-c2ccc3c(c2)CCN3C(=O)Cc2cccc(OC(F)(F)F)c2)c1 | 102 |  |  |  |  |
| CCn1nc(-c2ccc3c(c2)CCN3C(=O)CCc2cccc(OC(F)(F)F)c2)c2c(N)n[nH]c(=O)c21 | 97.6 | 4.62 | 4.82 | 20.3 |  |
| CCn1nc(-c2ccc3c(c2)CCN3Cc2cccc(OC(F)(F)F)c2)c2c(N)n[nH]c(=O)c21 | > 1000 | > 1000 | 990 | 451 |  |
| CCn1nc(-c2ccc3c(c2)CCN3C(=O)CCc2ccccc2)c2c(N)n[nH]c(=O)c21 | 191 | 149 | 232 | 42.1 |  |
| CCn1nc(-c2ccc3c(c2)CCN3C(=O)Cc2ccc(OC(F)(F)F)cc2)c2c(N)n[nH]c(=O)c21 | 177 | > 1000 | 638 | 726 |  |
| CCn1nc(-c2ccc3c(c2)CCN3C(=O)Cc2cc(F)cc(C(F)(F)F)c2)c2c(N)n[nH]c(=O)c21 | 475 | 331 | 283 | 12.8 |  |
| CCNc1ncnc(N)c1-c1ccc2c(c1)CCN2C(=O)Cc1cccc(OC(F)(F)F)c1 | > 1000 |  |  |  |  |
| CCn1nc(-c2ccc3c(c2)CCN3C(=O)C2(c3ccccc3)CC2)c2c(N)n[nH]c(=O)c21 | > 1000 | > 1000 | > 1000 | > 1000 |  |
| Nc1n[nH]c(=O)c2c1c(-c1ccc3c(c1)CCN3C(=O)Cc1cccc(OC(F)(F)F)c1)nn2Cc1ccc(F)cc1 | 290 | 257 | 112 | 30.2 |  |

| Structure (SMILES) | IC50 [1] [nM] | EC50 [2] [nM] | EC50 [3] [nM] | EC50 [4] [nM] | half-life [5] [min] |
| --- | --- | --- | --- | --- | --- |
| CCc1nc(-c2ccc3c(c2)CCN3C(=O)Cc2cccc(OC(F)(F)F)c2)c2c(N)nccn12 | 112 |  |  |  |  |
| CCn1nc(-c2ccc3c(c2)CCN3C(=O)Cc2ccccc2)c2c(N)n[nH]c(=O)c21 | > 1000 | 546 | 1020 | 142 |  |
| CCn1nc(-c2ccc3c(c2)CCN3C(=O)Cc2cccc(OC)c2)c2c(N)n[nH]c(=O)c21 | > 1000 |  |  |  |  |
| CCn1nc(-c2ccc3c(c2)CCN3C(=O)CCc2cccc(C(F)(F)F)c2)c2c(N)n[nH]c(=O)c21 | 111 | 19.3 | 33 | 4.71 |  |
| CCn1nc(-c2ccc3c(c2)CCN3C(=O)[C@H](C)c2ccccc2)c2c(N)n[nH]c(=O)c21 | > 1000 | > 1000 | > 1000 | > 1000 |  |
| Cn1nc(-c2ccc3c(c2)CCN3C(=O)Cc2cccc(OC(F)(F)F)c2)c2c(N)n[nH]c(=O)c21 | 140 | 21.4 | 37.1 | 3.4 |  |
| NC(=O)c1cc(-c2ccc3c(c2)CCN3C(=O)Cc2cccc(OC(F)(F)F)c2)ccc1N | > 1000 |  |  |  |  |
| CCn1nc(-c2ccc3c(c2)CCN3C(=O)c2cccc(OC(F)(F)F)c2)c2c(N)n[nH]c(=O)c21 | > 1000 | > 1000 | > 1000 | > 1000 |  |
| CCn1nc(-c2ccc3c(c2)CCN3C(C)=O)c2c(N)n[nH]c(=O)c21 | > 1000 |  |  |  |  |
| CCn1nc(-c2ccc3c(c2)CCN3C(=O)Cc2ccc3c(c2)OCO3)c2c(N)n[nH]c(=O)c21 | 915 | 562 | 703 | 114 |  |
| Nc1n[nH]c(=O)c2c1c(-c1ccc3c(c1)CCN3C(=O)Cc1cccc(OC(F)(F)F)c1)nn2CC1CCC1 | 68.4 | 34 | 1.87 | 1.35 |  |
| CC(C)CCn1nc(-c2ccc3c(c2)CCN3C(=O)Cc2cccc(OC(F)(F)F)c2)c2c(N)n[nH]c(=O)c21 | 114 | 8.24 | 18.5 | 6.36 |  |
| Nc1n[nH]c(=O)c2c1c(-c1ccc3c(c1)CCN3C(=O)Cc1cccc(OC(F)(F)F)c1)nn2CCN1CCCC1 | 512 | 63 | 173 | 54.4 |  |
| NC(=O)c1cncc(-c2ccc3c(c2)CCN3C(=O)Cc2cccc(OC(F)(F)F)c2)c1 | 157 |  |  |  |  |
| CCn1nc(-c2ccc3c(c2)CCN3C(=O)Cc2ccc(Oc3ccccc3)cc2)c2c(N)n[nH]c(=O)c21 | 941 | 905 | 812 | 311 |  |
| CCn1nc(-c2ccc3c(c2)CCN3C(=O)Cc2cccc(C(F)(F)F)c2)c2c(N)n[nH]c(=O)c21 | 135 | 11.3 | 1.38 | 1.75 |  |
| Nc1nc2cccc(-c3ccc4c(c3)CCN4C(=O)Cc3cccc(OC(F)(F)F)c3)n2n1 | > 1000 |  |  |  |  |
| CCn1nc(-c2ccc3c(c2)CCN3C(=O)Cc2cccc(F)c2F)c2c(N)n[nH]c(=O)c21 | > 1000 | 579 | 946 | 123 |  |
| CC(C)(C)c1ccc(Cn2nc(-c3ccc4c(c3)CCN4C(=O)Cc3cccc(OC(F)(F)F)c3)c3c(N)n[nH]c(=O)c32)cc1 | > 1000 | > 1000 | > 1000 | 659 |  |
| CCn1cc(-c2ccc3c(c2)CCN3C(=O)Cc2cccc(OC(F)(F)F)c2)c2ncnc(N)c21 | > 1000 |  |  |  |  |
